{
  "source": "patent US7572454B2",
  "about": "“T helper cell epitopes” (priority 1999, dated 2009)",
  "key": {"[1]": {"test_system": "LHRH", "assay": "Trial K9-8: antibody response to LHRH by ELISA", "type": "in vivo, dog", "conditions": "for antibody responses to LHRH: Trial K9-8, T-cell-LHRH constructs named by their T-cell epitope", "protocol": "A total of 35 dogs mixed sex were used in this trial. All had been previously vaccinated with a live CDV vaccine but had not been vaccinated against LHRH.\nThe T-Helper epitopes were linked to a truncated form of LHRH, containing amino acids 2 to 10 of the native 10 amino acid sequence, as shown below:\nAll vaccines were formulated as for Example 2, ie each 1 mL dose of vaccine contained 40nmoles of peptide, 150 μg Iscomatrix™, and thiomersal as preservative.\nWhere dogs were vaccinated with a pool of peptides, the concentration of each peptide was adjusted to give equal concentrations and a total amount of 40 nmoles of LHRH epitope per 1 mL dose.\nAll dogs were vaccinated with a 1 mL dose, delivered in the scruff of the neck. Vaccinations were given at 0 and 4 weeks and venous blood samples were obtained at intervals during the trial.\nEffective T-cell help was determined by measuring the antibody response to LHRH by ELISA. Biological effectiveness of the peptide based vaccine was determined by measuring the levels of progesterone in female dogs and testosterone in male dogs."}, "[2]": {"test_system": "PBMCs from dogs immunised with CDV", "assay": "T-cell proliferation after in vitro stimulation of PBMC with peptide pools, tested with autologous APCs and single peptides", "type": "cell-based, dog", "protocol": "An alternate strategy was used to increase the precursor frequency of specific T cells recognising the CDV peptides. Fresh PBMCs obtained from these hyperimmunised dogs were subjected to stimulation in vitro with pools of all 94 peptides for 30 minutes at 37° C. The cells were then washed to remove any excess peptides and cultured for 7 days. This population of T cells was then tested with autologous APCs with every single peptide as the antigen.\nTo confirm this observation, the same four dogs were bled again, five weeks after receiving the dose of killed virus. The PBMCs were stimulated in vitro with pools of either all 94 peptides or peptides 21-40 (because most of the activity was in this region) and after 7 days of culture the stimulated T cells were tested against individual peptides. Significant stimulatory indices were obtained with all peptides, confirming the above results. Four more dogs which received only one dose of 3 in 1 vaccine were tested using the in vitro stimulation method and all four dogs responded to the majority of peptides shown in Table 2.\nOnce again the same peptides and one additional peptide P32 were tested on cells from additional dogs."}, "[3]": {"test_system": "PBMCs obtained from dogs immunised with peptide vaccines", "assay": "In vitro T cell proliferation assay without enrichment, PBMCs of peptide-vaccinated dogs against Th-epitope and truncated versions", "type": "cell-based, dog", "conditions": "dogs of Example 2 immunised with the respective Th-epitope-LHRH; FIGS. 2-4", "protocol": "The assay was carried out without the enrichment of PBMCs. PBMCs obtained from Ficoll gradient purification were directly tested against the respective Th-epitope and its truncated versions. […] Truncated versions of the respective Th-epitopes were also tested to more closely define the T-cell activity within the sequences. […] This implies that the T-cell activity is towards the N-terminus or middle of the 17-residue peptide."}, "[4]": {"test_system": "LHRH", "assay": "Trial K9-5: antibody response to LHRH by ELISA", "type": "in vivo, dog", "conditions": "Trial K9-5, text"}, "[5]": {"test_system": "LHRH", "assay": "Trial in BALB/c mice: antibody response to LHRH by ELISA", "type": "in vivo", "protocol": "The canine vaccines with CDV-F derived Th-epitopes and LHRH used in Example 3 were also used to immunise BALB/c mice to investigate if the Th-epitopes would be functional in a different animal species.\nAll vaccines were formulated as for Example 3 except that they were diluted further so that 100 μl doses contained 2.7 nmoles of peptide and 10 μg of Iscomatrix™ and thiomersol as preservative.\nMice were vaccinated with 100 μl of the vaccine at the base of tail. Vaccinations were given at 0 and 4 weeks and animals bled at intervals after each vaccination from the retro-orbital plexus. Effective T-cell help was determined by measuring the antibody response to LHRH by ELISA."}, "[6]": {"conditions": "Table 1, Beagle Foxhound (Dog #18), hyperimmunised, PBMC stimulated with pool of all 94 peptides, 7 days culture"}, "[7]": {"conditions": "Table 1, Beagle Foxhound (Dog #19)"}, "[8]": {"conditions": "Table 1, Beagle Foxhound (Dog #20)"}, "[9]": {"conditions": "Table 1, Beagle Foxhound (Dog #21)"}, "[10]": {"conditions": "Table 2, Beagle Foxhound (Dog #71), one dose of 3 in 1 vaccine"}, "[11]": {"conditions": "Table 2, Beagle Foxhound (Dog #72), one dose of 3 in 1 vaccine"}, "[12]": {"conditions": "Table 2, Beagle Foxhound (Dog #73), one dose of 3 in 1 vaccine"}, "[13]": {"conditions": "Table 3, Kelpie Foxhound (Dog #125)"}, "[14]": {"conditions": "Table 3, Kelpie Foxhound (Dog #126)"}},
  "note": "Ends that are not written are not given here.",
  "data": [
    {"substance": "AELGEYEKLLNSVLEPI (canine distemper virus; synthetic peptide from canine distemper virus fusion protein (CDV-F) designated peptide P27)", "values": [
      {"measurement": "antibody responses to LHRH", "setting": "[1]", "result": "Strong antibody responses"},
      {"measurement": "Stimulatory index", "setting": "[2]; [6]", "result": 3.3},
      {"measurement": "Stimulatory index", "setting": "[2]; [7]", "result": 34},
      {"measurement": "Stimulatory index", "setting": "[2]; [8]", "result": 6.7},
      {"measurement": "Stimulatory index", "setting": "[2]; [9]", "result": 14.8},
      {"measurement": "Stimulatory index", "setting": "[2]; [10]", "result": 2.7},
      {"measurement": "Stimulatory index", "setting": "[2]; [11]", "result": 3.5},
      {"measurement": "Stimulatory index", "setting": "[2]; [12]", "result": 4.8},
      {"measurement": "Stimulatory index", "setting": "[2]; [13]", "result": 4.5},
      {"measurement": "Stimulatory index", "setting": "[2]; [14]", "result": 8.5},
      {"measurement": "Stimulation indices to Th-epitope and its truncated versions", "setting": "[3]", "result": "the 17 residue long peptide was a better simulator than the 15-mer"}
    ]},
    {"substance": "KLIPNASLIENCTKAEL (canine distemper virus; synthetic peptide from canine distemper virus fusion protein (CDV-F) designated peptide P25)", "values": [
      {"measurement": "antibody responses to LHRH", "setting": "[1]", "result": "Strong antibody responses"},
      {"measurement": "Stimulatory index", "setting": "[2]; [6]", "result": 3.2},
      {"measurement": "Stimulatory index", "setting": "[2]; [7]", "result": 11.9},
      {"measurement": "Stimulatory index", "setting": "[2]; [8]", "result": 4.5},
      {"measurement": "Stimulatory index", "setting": "[2]; [9]", "result": 17},
      {"measurement": "Stimulatory index", "setting": "[2]; Table 2, Beagle Foxhound (Dog #70), one dose of 3 in 1 vaccine", "result": 1.5},
      {"measurement": "Stimulatory index", "setting": "[2]; [10]", "result": 2.9},
      {"measurement": "Stimulatory index", "setting": "[2]; [11]", "result": 2},
      {"measurement": "Stimulatory index", "setting": "[2]; [12]", "result": 12},
      {"measurement": "Stimulatory index", "setting": "[2]; Table 5, Border Collie", "result": "<2"},
      {"measurement": "Stimulatory index", "setting": "[2]; Table 5, Fox Terrier", "result": 2.6},
      {"measurement": "Stimulatory index", "setting": "[2]; Table 5, Grey hound", "result": "<2"},
      {"measurement": "Stimulatory index", "setting": "[2]; Table 5, Kelpie Pointer", "result": 2.6},
      {"measurement": "Stimulatory index", "setting": "[2]; Table 5, Poodle Shitzu", "result": "<2"},
      {"measurement": "Stimulatory index", "setting": "[2]; Table 5, Terrier Cross", "result": "<2"},
      {"measurement": "Stimulation indices to Th-epitope and its truncated versions", "setting": "[3]", "result": "the full sequence of 17 residues was better than the shorter peptides of 15 and 12 residues"}
    ]},
    {"substance": "P35-LHRH: T-helper epitope P35 linked to truncated LHRH, amino acids 2 to 10 (SEQ ID NO: 29) (HWSYGLRPG; not fully specified (N-terminus); ends and bridges not checked; also: linked to T-helper epitope P35; listed as Homo sapiens) [Peptide P35-LHRH]", "values": [
      {"measurement": "Anti LHRH Titres, 2 wks post boost, GMT", "setting": "[1]; group GMT", "result": 103085},
      {"measurement": "Anti LHRH Titres, 4 wks after primary, GMT", "setting": "[1]; group GMT", "result": 2469},
      {"measurement": "Anti LHRH Titres, 4 wks post boost, GMT", "setting": "[1]; group GMT", "result": 58002},
      {"measurement": "antibody response to the B-cell epitope (LHRH)", "setting": "[4]", "result": "strong antibody responses"},
      {"measurement": "Anti-LHRH antibody titre", "setting": "[5]; 2 weeks post second vaccination, Mouse 1", "result": "1,412"},
      {"measurement": "Anti-LHRH antibody titre", "setting": "[5]; 2 weeks post second vaccination, Mouse 2", "result": 800},
      {"measurement": "Anti-LHRH antibody titre", "setting": "[5]; 2 weeks post second vaccination, Mouse 3", "result": "<100"},
      {"measurement": "Anti-LHRH antibody titre", "setting": "[5]; 2 weeks post second vaccination, Mouse 4", "result": "<100"},
      {"measurement": "Anti-LHRH antibody titre", "setting": "[5]; 2 weeks post second vaccination, Mouse 5", "result": "<100"},
      {"measurement": "Anti-LHRH antibody titre", "setting": "[5]; 4 weeks post first vaccination, Mouse 1, 2.7 nmoles peptide, base of tail", "result": "<100"},
      {"measurement": "Anti-LHRH antibody titre", "setting": "[5]; 4 weeks post first vaccination, Mouse 2", "result": "<100"},
      {"measurement": "Anti-LHRH antibody titre", "setting": "[5]; 4 weeks post first vaccination, Mouse 3", "result": "<100"},
      {"measurement": "Anti-LHRH antibody titre", "setting": "[5]; 4 weeks post first vaccination, Mouse 4", "result": "<100"},
      {"measurement": "Anti-LHRH antibody titre", "setting": "[5]; 4 weeks post first vaccination, Mouse 5", "result": "<100"}
    ]},
    {"substance": "TAAQITAGIALHQSNLN [Peptide P35]", "values": [
      {"measurement": "antibody responses to LHRH", "setting": "[1]", "result": "Strong antibody responses"},
      {"measurement": "antibody titres to LHRH", "setting": "[5]; BALB/c mice", "result": "low antibody titres"},
      {"measurement": "Stimulatory index", "setting": "[2]; [6]", "result": 3.1},
      {"measurement": "Stimulatory index", "setting": "[2]; [7]", "result": 57},
      {"measurement": "Stimulatory index", "setting": "[2]; [8]", "result": 3.3},
      {"measurement": "Stimulatory index", "setting": "[2]; [9]", "result": 22},
      {"measurement": "Stimulatory index", "setting": "[2]; [11]", "result": 1.7},
      {"measurement": "Stimulatory index", "setting": "[2]; [12]", "result": 6.8},
      {"measurement": "Stimulatory index", "setting": "[2]; [13]", "result": 3.8},
      {"measurement": "Stimulatory index", "setting": "[2]; [14]", "result": 10},
      {"measurement": "Stimulatory index", "setting": "[2]; Table 5, Border Collie", "result": 2},
      {"measurement": "Stimulatory index", "setting": "[2]; Table 5, Fox Terrier", "result": 2.2},
      {"measurement": "Stimulatory index", "setting": "[2]; Table 5, Grey hound", "result": "<2"},
      {"measurement": "Stimulatory index", "setting": "[2]; Table 5, Kelpie Pointer", "result": 2},
      {"measurement": "Stimulatory index", "setting": "[2]; Table 5, Poodle Shitzu", "result": "<2"},
      {"measurement": "Stimulatory index", "setting": "[2]; Table 5, Terrier Cross", "result": "<2"},
      {"measurement": "Stimulation indices to Th-epitope and its truncated versions", "setting": "[3]", "result": "the other three dogs responded as well to the 12 residue peptide as to the full length 17 residue one"}
    ]}
  ]
}
